In ChEMBL document CHEMBL5696442, “Discovery of type II inhibitors of TGFβ-activated kinase 1 (TAK1) and mitogen-activated protein kinase kinase kinase kinase 2 (MAP4K2)” (J Med Chem, 2015):

Assays:
[1] = biological target: Putative phosphatidylinositol 4-kinase alpha-like protein P2 (Homo sapiens) (UniProt A4QPH2); assay: Inhibition of PI4KAP2 ATP labeling site in human A-375 cells at 0.5 uM by KiNativ Profiling analysis relative to control; type: cell-based
[2] = tested on: Hepatocyte growth factor receptor (Homo sapiens), P08581 [M1250T]; assay: Inhibition of MET M1250T mutant (unknown origin) at 1 uM by Ambit Kinomescan binding assay relative to control
[3] = biological target: T1, Phosphatidylinositol 4,5-bisphosphate 3-kinase catalytic subunit delta isoform (Homo sapiens) (UniProt O00329); assay: Inhibition of PIK3CD ATP labeling site in human A-375 cells at 0.5 uM by KiNativ Profiling analysis relative to control; type: cell-based
T1 sequence (whole entry): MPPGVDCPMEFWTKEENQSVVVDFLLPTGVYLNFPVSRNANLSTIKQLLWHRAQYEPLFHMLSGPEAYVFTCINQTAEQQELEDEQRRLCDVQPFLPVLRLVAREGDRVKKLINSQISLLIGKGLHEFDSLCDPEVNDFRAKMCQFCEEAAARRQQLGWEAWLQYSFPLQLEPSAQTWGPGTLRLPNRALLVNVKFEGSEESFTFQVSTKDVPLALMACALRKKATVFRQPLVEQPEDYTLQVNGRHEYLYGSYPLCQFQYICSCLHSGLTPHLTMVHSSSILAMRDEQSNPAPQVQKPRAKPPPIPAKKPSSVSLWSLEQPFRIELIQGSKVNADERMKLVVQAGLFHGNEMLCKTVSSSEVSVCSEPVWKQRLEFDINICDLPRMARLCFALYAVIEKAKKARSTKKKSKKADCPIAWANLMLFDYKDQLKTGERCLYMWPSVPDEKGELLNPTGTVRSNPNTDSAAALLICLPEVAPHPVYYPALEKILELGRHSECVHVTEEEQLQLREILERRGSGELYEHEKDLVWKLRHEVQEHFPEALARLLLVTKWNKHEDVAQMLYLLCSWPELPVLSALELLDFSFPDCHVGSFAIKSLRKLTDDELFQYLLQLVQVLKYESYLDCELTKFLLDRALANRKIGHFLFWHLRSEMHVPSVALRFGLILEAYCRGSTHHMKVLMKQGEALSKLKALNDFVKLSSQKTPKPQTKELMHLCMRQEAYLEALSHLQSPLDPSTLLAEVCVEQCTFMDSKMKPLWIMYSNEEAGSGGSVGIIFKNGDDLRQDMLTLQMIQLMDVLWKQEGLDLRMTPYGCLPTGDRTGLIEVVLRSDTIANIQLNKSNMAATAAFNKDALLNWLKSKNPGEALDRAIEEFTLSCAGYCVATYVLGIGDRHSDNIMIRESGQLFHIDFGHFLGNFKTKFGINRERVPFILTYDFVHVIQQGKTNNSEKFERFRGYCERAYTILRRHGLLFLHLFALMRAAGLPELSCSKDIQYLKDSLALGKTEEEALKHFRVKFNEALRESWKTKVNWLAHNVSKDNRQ

[4] = biological target: Serine/threonine-protein kinase 38 (Homo sapiens) (UniProt Q15208); assay: Inhibition of NDR1 Lys1 labeling site in human A-375 cells at 0.05 uM by KiNativ Profiling analysis relative to control; type: cell-based
RAW = assay: Inhibition of LPS induced p105 phosphorylation in mouse RAW cells preincubated for 1 hr followed by LPS stimulation and measured after 30 mins by Western blot analysis; type: functional, cell-based; conditions: dose 0.01-10 µM
[5] = Inhibition of […] K2 labeling site in human Huh-7 cells at 10 uM by KiNativ Profiling analysis relative to control; conditions: condition cancer
[6] = biological target: Platelet-derived growth factor receptor beta (Homo sapiens) (UniProt P09619); assay: Inhibition of PDGFRB (unknown origin) at 10 uM by Ambit Kinomescan binding assay relative to control
[7] = biological target: T2, Dual specificity mitogen-activated protein kinase kinase 6 (Homo sapiens) (UniProt P52564); assay: Inhibition of MAP2K6 Lys1 labeling site in human Huh-7 cell lysate at 1 uM by KiNativ Profiling analysis relative to control; type: subcellular
T2 sequence (whole entry): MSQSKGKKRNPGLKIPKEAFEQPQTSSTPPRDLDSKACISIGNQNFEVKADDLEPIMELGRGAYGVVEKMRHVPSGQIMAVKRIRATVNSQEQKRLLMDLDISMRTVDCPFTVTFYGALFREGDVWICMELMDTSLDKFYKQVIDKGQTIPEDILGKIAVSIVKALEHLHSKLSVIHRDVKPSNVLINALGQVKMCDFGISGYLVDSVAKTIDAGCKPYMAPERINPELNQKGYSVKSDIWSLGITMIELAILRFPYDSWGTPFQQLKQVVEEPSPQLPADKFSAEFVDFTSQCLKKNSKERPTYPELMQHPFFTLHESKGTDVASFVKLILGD

[8] = biological target: T3, EKC/KEOPS complex subunit TP53RK (Homo sapiens) (UniProt Q96S44); assay: Inhibition of PRPK ATP Loop labeling site in human Huh-7 cells at 1 uM by KiNativ Profiling analysis relative to control; type: cell-based
T3 sequence (whole entry): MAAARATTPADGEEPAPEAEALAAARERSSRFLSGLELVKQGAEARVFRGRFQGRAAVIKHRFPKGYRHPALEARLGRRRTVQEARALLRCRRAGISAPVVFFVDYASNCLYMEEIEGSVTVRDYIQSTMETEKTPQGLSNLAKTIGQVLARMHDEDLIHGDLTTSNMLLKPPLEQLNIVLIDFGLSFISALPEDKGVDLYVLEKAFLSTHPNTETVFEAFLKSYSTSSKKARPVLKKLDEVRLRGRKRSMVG

[9] = biological target: Cyclin-dependent kinase 11B (Homo sapiens) (UniProt P21127); assay: Inhibition of CDK11 Lys2 labeling site in human Huh-7 cell lysate at 1 uM by KiNativ Profiling analysis relative to control; type: subcellular
[10] = biological target: T4, Interleukin-1 receptor-associated kinase 4 (Homo sapiens) (UniProt Q9NWZ3); assay: Inhibition of IRAK4 Lys2 labeling site in human Huh-7 cells at 1 uM by KiNativ Profiling analysis relative to control; type: cell-based
T4 sequence (whole entry): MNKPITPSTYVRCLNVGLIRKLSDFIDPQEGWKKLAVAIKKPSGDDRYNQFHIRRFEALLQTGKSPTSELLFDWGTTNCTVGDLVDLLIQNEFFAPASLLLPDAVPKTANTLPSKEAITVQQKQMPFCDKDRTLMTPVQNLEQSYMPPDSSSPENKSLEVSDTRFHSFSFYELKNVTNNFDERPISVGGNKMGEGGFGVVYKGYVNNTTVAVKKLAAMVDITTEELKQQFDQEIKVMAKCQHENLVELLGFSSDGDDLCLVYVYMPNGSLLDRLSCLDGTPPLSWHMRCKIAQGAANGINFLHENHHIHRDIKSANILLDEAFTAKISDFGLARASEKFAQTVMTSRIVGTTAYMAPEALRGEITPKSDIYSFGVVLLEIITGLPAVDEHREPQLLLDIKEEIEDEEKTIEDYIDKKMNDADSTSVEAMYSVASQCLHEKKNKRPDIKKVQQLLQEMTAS

Sequence of Cyclin-dependent kinase 11B (Homo sapiens) (P21127 whole entry): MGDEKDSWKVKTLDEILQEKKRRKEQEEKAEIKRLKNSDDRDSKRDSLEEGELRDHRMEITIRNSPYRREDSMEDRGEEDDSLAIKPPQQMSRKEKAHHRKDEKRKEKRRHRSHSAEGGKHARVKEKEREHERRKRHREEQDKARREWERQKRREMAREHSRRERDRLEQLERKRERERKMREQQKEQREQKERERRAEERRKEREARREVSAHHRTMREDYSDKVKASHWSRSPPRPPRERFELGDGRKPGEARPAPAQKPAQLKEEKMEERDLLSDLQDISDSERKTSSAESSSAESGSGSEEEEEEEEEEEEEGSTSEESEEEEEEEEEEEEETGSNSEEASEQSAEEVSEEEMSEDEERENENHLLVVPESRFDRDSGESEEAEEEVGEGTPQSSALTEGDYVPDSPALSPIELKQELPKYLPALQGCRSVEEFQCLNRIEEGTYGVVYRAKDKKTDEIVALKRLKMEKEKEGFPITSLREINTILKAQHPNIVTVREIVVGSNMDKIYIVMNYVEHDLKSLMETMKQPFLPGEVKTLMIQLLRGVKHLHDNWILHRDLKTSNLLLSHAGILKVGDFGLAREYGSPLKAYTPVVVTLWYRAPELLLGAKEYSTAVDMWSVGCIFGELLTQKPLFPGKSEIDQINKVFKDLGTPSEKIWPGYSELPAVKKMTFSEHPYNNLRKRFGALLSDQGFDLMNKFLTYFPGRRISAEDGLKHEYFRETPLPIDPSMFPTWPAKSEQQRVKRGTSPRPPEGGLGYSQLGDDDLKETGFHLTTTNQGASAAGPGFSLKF
Sequence of Putative phosphatidylinositol 4-kinase alpha-like protein P2 (Homo sapiens) (A4QPH2 whole entry): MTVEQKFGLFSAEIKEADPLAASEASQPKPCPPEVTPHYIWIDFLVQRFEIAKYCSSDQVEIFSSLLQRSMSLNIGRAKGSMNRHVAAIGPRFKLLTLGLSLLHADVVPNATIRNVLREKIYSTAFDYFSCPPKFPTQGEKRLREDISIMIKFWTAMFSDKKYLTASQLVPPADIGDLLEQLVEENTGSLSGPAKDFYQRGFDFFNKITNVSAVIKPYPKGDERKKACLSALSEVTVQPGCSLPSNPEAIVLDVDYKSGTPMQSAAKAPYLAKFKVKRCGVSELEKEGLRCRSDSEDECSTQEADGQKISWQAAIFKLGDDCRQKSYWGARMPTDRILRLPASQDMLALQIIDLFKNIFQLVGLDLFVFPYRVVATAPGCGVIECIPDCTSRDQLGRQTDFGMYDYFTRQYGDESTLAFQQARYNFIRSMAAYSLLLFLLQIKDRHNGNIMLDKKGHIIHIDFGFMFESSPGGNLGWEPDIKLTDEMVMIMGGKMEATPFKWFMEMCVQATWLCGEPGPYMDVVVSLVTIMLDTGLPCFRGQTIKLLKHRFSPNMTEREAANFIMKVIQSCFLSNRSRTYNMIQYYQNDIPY
Sequence of Hepatocyte growth factor receptor (Homo sapiens), P08581 [M1250T] (P08581 whole entry M1250T, canonical isoform): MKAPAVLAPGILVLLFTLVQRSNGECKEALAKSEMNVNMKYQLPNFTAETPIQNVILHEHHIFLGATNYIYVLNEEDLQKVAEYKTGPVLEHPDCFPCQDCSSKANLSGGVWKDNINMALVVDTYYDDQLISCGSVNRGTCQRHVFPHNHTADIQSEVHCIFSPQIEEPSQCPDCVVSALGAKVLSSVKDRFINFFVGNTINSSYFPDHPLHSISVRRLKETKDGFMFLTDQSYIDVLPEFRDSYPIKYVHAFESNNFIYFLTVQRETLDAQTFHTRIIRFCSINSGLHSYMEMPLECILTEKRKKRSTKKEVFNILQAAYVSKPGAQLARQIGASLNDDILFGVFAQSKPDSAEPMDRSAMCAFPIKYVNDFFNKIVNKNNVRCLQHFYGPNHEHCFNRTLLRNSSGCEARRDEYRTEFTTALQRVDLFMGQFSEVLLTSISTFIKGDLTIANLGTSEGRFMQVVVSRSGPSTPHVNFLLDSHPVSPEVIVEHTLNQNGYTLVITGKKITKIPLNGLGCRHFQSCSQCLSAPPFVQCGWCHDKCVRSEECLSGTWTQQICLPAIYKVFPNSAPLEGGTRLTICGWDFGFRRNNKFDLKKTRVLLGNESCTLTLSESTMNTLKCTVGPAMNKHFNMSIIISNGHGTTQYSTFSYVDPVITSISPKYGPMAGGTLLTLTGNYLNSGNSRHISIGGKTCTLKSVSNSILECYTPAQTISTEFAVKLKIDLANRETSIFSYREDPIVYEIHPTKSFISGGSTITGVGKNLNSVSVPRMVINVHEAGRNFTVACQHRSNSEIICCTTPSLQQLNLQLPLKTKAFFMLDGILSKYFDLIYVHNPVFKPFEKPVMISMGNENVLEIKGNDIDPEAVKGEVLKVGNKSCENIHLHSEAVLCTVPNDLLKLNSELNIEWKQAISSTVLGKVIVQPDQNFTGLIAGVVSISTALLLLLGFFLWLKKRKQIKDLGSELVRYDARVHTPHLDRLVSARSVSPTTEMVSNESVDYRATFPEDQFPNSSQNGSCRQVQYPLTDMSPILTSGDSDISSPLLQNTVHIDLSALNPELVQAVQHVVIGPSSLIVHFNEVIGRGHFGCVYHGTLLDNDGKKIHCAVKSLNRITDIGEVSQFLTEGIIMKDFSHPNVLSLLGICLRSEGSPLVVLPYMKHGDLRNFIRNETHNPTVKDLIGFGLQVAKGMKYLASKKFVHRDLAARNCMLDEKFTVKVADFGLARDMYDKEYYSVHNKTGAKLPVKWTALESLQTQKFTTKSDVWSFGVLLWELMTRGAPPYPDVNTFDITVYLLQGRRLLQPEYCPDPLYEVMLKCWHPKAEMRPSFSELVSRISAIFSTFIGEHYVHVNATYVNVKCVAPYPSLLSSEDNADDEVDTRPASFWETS
Sequence of Platelet-derived growth factor receptor beta (Homo sapiens) (P09619 whole entry): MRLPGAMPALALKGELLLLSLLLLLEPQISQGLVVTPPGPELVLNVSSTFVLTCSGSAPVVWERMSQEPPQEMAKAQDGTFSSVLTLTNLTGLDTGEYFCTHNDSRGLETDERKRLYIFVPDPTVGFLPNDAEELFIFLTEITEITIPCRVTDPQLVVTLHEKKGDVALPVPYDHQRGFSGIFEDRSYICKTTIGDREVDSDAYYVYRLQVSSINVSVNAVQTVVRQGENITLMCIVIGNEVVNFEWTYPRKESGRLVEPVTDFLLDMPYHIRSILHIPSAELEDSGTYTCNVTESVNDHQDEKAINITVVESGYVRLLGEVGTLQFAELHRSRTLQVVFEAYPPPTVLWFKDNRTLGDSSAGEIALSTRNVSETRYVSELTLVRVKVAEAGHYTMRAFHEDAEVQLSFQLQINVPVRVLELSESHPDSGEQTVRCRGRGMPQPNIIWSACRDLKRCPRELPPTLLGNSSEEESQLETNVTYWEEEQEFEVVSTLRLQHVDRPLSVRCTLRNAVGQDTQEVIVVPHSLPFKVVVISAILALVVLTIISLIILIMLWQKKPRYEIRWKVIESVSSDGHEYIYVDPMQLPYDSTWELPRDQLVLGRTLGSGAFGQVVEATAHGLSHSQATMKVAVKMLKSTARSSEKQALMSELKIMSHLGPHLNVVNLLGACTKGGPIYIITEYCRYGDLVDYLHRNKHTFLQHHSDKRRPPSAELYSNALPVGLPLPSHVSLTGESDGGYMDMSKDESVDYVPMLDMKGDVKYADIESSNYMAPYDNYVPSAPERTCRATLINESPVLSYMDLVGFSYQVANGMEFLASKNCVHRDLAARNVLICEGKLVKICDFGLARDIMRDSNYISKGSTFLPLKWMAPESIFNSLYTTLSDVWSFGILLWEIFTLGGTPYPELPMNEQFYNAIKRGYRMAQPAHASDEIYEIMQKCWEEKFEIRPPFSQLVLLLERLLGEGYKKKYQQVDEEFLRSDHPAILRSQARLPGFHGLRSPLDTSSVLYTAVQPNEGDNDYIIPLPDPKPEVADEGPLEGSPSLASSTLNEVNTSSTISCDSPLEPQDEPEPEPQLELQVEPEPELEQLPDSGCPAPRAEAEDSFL
Sequence of Serine/threonine-protein kinase 38 (Homo sapiens) (Q15208 2-465 limits assumed): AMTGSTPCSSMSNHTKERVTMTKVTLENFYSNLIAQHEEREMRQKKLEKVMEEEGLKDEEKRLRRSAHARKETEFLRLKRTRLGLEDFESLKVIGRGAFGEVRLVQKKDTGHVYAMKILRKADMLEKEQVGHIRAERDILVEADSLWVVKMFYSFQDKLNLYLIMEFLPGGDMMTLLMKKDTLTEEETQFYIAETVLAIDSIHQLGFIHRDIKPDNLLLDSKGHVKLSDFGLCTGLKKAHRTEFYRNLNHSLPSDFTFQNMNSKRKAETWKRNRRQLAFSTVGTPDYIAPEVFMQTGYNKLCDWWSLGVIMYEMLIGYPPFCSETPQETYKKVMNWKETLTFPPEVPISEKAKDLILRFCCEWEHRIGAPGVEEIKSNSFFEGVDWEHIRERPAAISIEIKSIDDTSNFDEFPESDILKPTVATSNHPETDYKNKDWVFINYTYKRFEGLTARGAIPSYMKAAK

Compound CCN1CCN(Cc2ccc(NC(=O)c3ccc(C)c(/C=C/c4cnc5[nH]ccc5c4OC)c3)cc2C(F)(F)F)CC1 has an inhibition [1] of -8%, an inhibition [2] of 74% and an inhibition [3] of 4.2%. For the same compound, the inhibition [4] was 3.2%.

For CCN1CCN(Cc2ccc(NC(=O)c3ccc(C)c(Oc4ccnc5[nH]ccc45)c3)cc2C(F)(F)F)CC1, the inhibition (RAW) was “Dose-Dependent Effect”, the inhibition at 10 µM [5] was -6.7% and the inhibition [6] was 0%.

In the case of CNc1cc(Oc2cc(C(=O)Nc3cc(N4CCN(C)CC4)cc(C(F)(F)F)c3)ccc2C)ncn1, the inhibition [7] is reported as 5.3%, the inhibition [8] is reported as 22.9% and the inhibition [9] is reported as -8.6%. The inhibition [10] was 0.4%.
